Experimental data from US20150258189A1, “HEPATITIS C VIRUS PARTICLES FORMATION PROMOTER, AND METHOD OF PRODUCING HEPATITIS C VIRUS PARTICLES” (priority 2012, published 2015).
Read-outs that look alike come from different tables or passages of the source.

Tests used:
Format in all cases: cell-based, hepatitis C virus
[1] = test system: HCV JFH1 strain; details: for Promotion ratio (HCV particle production-promoting effect): added after HCV adsorption, 46 h culture, Huh7-it cells, moi=0.1, control (DMSO) = 1.0
Procedure: In this example, the purified lovastatin solution “B15.4.1” (FIG. 1) of Example 1 was used as the “HCV particle formation promoter.” A lovastatin solution prepared by adding a culture medium to the HCV particle formation promoter to adjust each lovastatin concentration at the time of virus inoculation and at the time of culture to from 1.25 to 20 μg/ml was used in the following.
In this example, Huh7-it cells, a highly HCV-permissive cell line derived from Huh7 cells, were used as culture cells. The medium used was Dulbecco's modified Eagle's medium supplemented with 10% fetal calf serum, non-essential amino acids, penicillin, and streptomycin, and the cells were cultured using a 48-well culture plate.
A HCV stock solution to be used to promote formation of HCV particles was prepared by the following method. The HCV strain used was JFH1 strain (genome sequence: GenBank accession number AB047639). RNA having the same sequence as that of the full genome of the HCV JFH1 strain was introduced (transfected) into Huh7-it cells by an electroporation method (van den Hoff M J et al., Nucleic Acids Res., 20:2902, 1992), and the culture supernatant 72 hours after the introduction was collected. The collected culture supernatant was passed through a 0.45-μm filter (Millipore) to remove contaminants, and then added to other Huh7-it cells. An infectivity titer was calculated by measuring the number of HCV-infected cells after 72 hours by a focus method, and a solution adjusted to have an infectivity titer of 5.4×10^4 infectious units/ml was used as the HCV stock solution. The infectivity titer to prepare the HCV stock solution was calculated by an immunostaining method. An anti-HCV-core (clone CP14) monoclonal antibody was used as a primary antibody, and a HRP-labeled goat anti-mouse antibody was used as a labeling antibody. Konica Immunostain HRP-1000 (Konica Minolta) was added, and the number of virus antigen-positive cell populations stained in blue (immunofocus; also called focus) was measured under a microscope. Thus, the infectivity titer was calculated.
A mixture of the HCV stock solution (5.4×10^4 infectious units/ml) prepared in the above-mentioned section 3) and the HCV particle formation promoter was inoculated into culture cells, and the virus was adsorbed to the cells at 37° C. for 2 hours. Then, the virus liquid was removed, and the cells were washed three times with a culture medium. After that, in the same manner as described above, the cells were cultured for […] with the addition of the HCV particle formation promoter (lovastatin concentration: 1.25 to 20 μg/ml). The virus was inoculated into the culture cells so that the multiplicity of infection (moi) was 0.1.
To confirm a virus-producing ability, the culture medium of the infected cells was centrifuged at 10,000 rpm for 3 minutes, and the centrifugation supernatant was used as a sample liquid. The sample liquid was inoculated into non-HCV-infected Huh7-it cells. […] The number of staining-positive cells was measured, and the HCV infectivity titer was measured.
In this example, the crude lovastatin solution “B15” (FIG. 1) of Example 1 was used as the “HCV particle formation promoter.” A lovastatin solution prepared by adding a culture medium to the HCV particle formation promoter to adjust each lovastatin concentration at the time of virus inoculation and at the time of culture to from 1 to 50 μg/ml was used in the following.
In this example, HCV was inoculated into culture cells to achieve moi=0.1 as in Example 2, and the HCV particle formation promoter was added at the following timings i) to iii).
A mixture of HCV and the HCV particle formation promoter was inoculated into culture cells, and the virus was adsorbed to the cells at 37° C. for 2 hours. Then, the virus liquid was removed, and the cells were washed three times with a culture medium. After that, the cells were cultured for 46 hours with the addition of the HCV particle formation promoter containing lovastatin. […]

[2] = test system: HCV RNA; test: Intracellular HCV RNA copy number by quantitative RT-PCR in Huh7-it cells; details: Example 6; 20 μg/ml lovastatin; days 1, 2, 3 and 4 after infection; versus DMSO control (FIG. 6)
Procedure: In this example, culture cells were prepared in the same manner as in Example 2 to confirm the influence on the HCV RNA copy number in the culture cells on days 1, 2, 3, and 4 after HCV infection in adding the HCV particle formation promoter to Huh7-it cells over a period of from during HCV adsorption to 48 hours after HCV infection. In this example, the purified lovastatin solution “B15.4.1” (FIG. 1) of Example 1 was used as the HCV particle formation promoter. A lovastatin solution prepared by adding a culture medium to the HCV particle formation promoter to adjust each lovastatin concentration at the time of virus inoculation and at the time of culture to 20 μg/ml was used in the following. A system containing DMSO in place of the HCV particle formation promoter was used as a control.
A sample to measure an intracellular HCV RNA copy was prepared in the same manner as in Example 5. Total RNA was extracted from infected cells using Trizol®/Trizol®-LS (Invitrogen). cDNA was synthesized from the total RNA by performing a reverse transcription reaction at 37° C. for 15 minutes and an enzyme inactivation reaction at 98° C. for 5 minutes through the use of a ReverTra Ace® qPCR-Kit (Toyobo). The HCV RNA copy number was measured by a quantitative RT-PCR method using a LightCycler® 480 real-time PCR system. […]

[3] = test system: HCV protein (antigen); test: Intracellular HCV protein (antigen) synthesis by immunostaining in Huh7-it cells; details: Example 6, 20 μg/ml lovastatin, versus DMSO control (FIG. 7)
[4] = test system: HCV JFH1 strain; test: Intracellular HCV infectivity titer in Huh7-it cells (freeze-thawing method); details: Example 5; 20 μg/ml lovastatin, from adsorption to 48 h after infection; versus DMSO control (FIG. 5)
Procedure: In this example, culture cells were prepared in the same manner as in Example 2 to confirm the influence on the HCV infectivity titer inside and outside Huh7-it cells in adding the HCV particle formation promoter to the cells over a period of from during HCV adsorption to 48 hours after HCV infection. In this example, the purified lovastatin solution “B15.4.1” (FIG. 1) of Example 1 was used as the HCV particle formation promoter. A lovastatin solution prepared by adding a culture medium to the HCV particle formation promoter to adjust each lovastatin concentration at the time of virus inoculation and at the time of culture to 20 μg/ml was used in the following. A system containing dimethylsulfoxide (DMSO) in place of the HCV particle formation promoter was used as a control.
A sample to measure an extracellular HCV infectivity titer was prepared in the same manner as in Example 2. A sample to measure an intracellular HCV infectivity titer was prepared by a freeze-thawing method. First, infected cells were washed with PBS and then detached by trypsin/EDTA treatment, followed by centrifugation to collect a cell pellet. The cell pellet was washed once with PBS, suspended in 0.5 ml of a culture medium, and freeze-thawed at −80° C. three times repeatedly, followed by centrifugation at 12,000 rpm for 5 minutes. […] Each sample was measured for its virus titer in the same manner as in Example 2.

[5] = test system: HCV JFH1 strain; details: added after HCV adsorption, 46 h culture, Huh7-it cells, moi=0.1, control (DMSO) = 1.0

Structure (SMILES) | Promotion ratio (HCV particle production-promoting effect) ([1]; 1.25 μg/ml) | Promotion ratio (HCV particle production-promoting effect) ([1]; 2.5 μg/ml) | Promotion ratio (HCV particle production-promoting effect) ([1]; 5.0 μg/ml) | Promotion ratio (HCV particle production-promoting effect) ([1]; 20.0 μg/ml) | intracellular HCV RNA replication amount [2] | HCV infectivity titer ([1]; Example 2, 5 to 20 μg/ml of lovastatin, during adsorption and 48 h culture, Huh7-it cells (FIG. 2)) | virus infectivity titer ([1]; Example 4, 20 μg/ml lovastatin, added after HCV adsorption (with or without presence during adsorption), 46 h culture (FIG. 4)) | intracellular HCV protein (antigen) synthesis amount [3] | intracellular HCV particle-producing ability versus control [4] | Promotion ratio (HCV particle production-promoting effect) ([5]; 80.0 μg/ml) | Promotion ratio (HCV particle production-promoting effect) ([5]; 200.0 μg/ml)
CC(C)c1c(C(=O)Nc2ccccc2)c(-c2ccccc2)c(-c2ccc(F)cc2)n1CC[C@@H](O)C[C@@H](O)CC(=O)O [Atorvastatin, calcium (3R,5R)-7-[2-(4-fluorophenyl)-5-isopropyl-3-phenyl-4-[(phenylamino)carbonyl]-1H-pyrrol-1-yl]-3,5-dihydroxyheptanoate] | 0.9 | 4.3 | 9.4 | 9.7 |  |  |  |  |  |  | 
CC[C@H](C)C(=O)O[C@H]1C[C@@H](C)C=C2C=C[C@H](C)[C@H](CC[C@@H]3C[C@@H](O)CC(=O)O3)[C@H]21 [B15.4.1] |  |  |  |  | not affected | high HCV infectivity titer was found in a lovastatin concentration-dependent manner | high virus infectivity titer was found | not affected | substantially no difference |  | 
CC(C)n1c(/C=C/[C@@H](O)C[C@@H](O)CC(=O)[O-])c(-c2ccc(F)cc2)c2ccccc21.[Na+] [Fluvastatin, sodium (3R,5S,6E)-7-[3-(4-fluorophenyl)-1-(1-methylethyl)-1H-indol-2-yl]-3,5-dihydroxy-6-heptenoate] | 9.2 | 14.3 | 15.2 | 7.9 |  |  |  |  |  |  | 
CC[C@H](C)C(=O)O[C@H]1C[C@@H](C)C=C2C=C[C@H](C)[C@H](CC[C@@H]3C[C@@H](O)CC(=O)O3)[C@H]21 [Lovastatin, (1S,3R,7S,8S,8aR)-8-[2-((2R,4R)-4-hydroxy-6-oxotetrahydro-2H-pyran-2-yl)ethyl]-3,7-dimethyl-1,2,3,7,8,8a-hexahydro-1-naphthyl] | 0.8 | 3.5 | 6.1 | 11.1 |  |  |  |  |  |  | 
CC[C@H](C)C(=O)O[C@H]1C[C@H](O)C=C2C=C[C@H](C)[C@H](CC[C@@H](O)C[C@@H](O)CC(=O)O)[C@H]21 [Pravastatin, (1S,βR,δR,8aβ)-1,2,6,7,8,8a-hexahydro-β,δ,6β-trihydroxy-2β-methyl-8α-[(S)-2-methyl-1-oxobutoxy]-1β-naphthaleneheptanoate] |  |  | 0.6 | 2.7 |  |  |  |  |  | 17.2 | 24.7
CCC(C)(C)C(=O)O[C@H]1C[C@@H](C)C=C2C=C[C@H](C)[C@H](CC[C@@H]3C[C@@H](O)CC(=O)O3)[C@H]21 [Simvastatin, (1S,3R,7S,8S,8aR)-8-[2-[(2R,4R)-4-hydroxy-6-oxotetrahydropyran-2-yl]ethyl]-3,7-dimethyl-1,2,3,7,8,8a-hexahydro-1-naphthyl] | 8.5 | 14.8 | 19.5 | 4.1 |  |  |  |  |  |  | 
